From US8372967B2, “Compounds and methods for modulating expression of GCCR” (Isis Pharmaceuticals, Inc., priority 2006, dated 2013)
Strand notation (5' to 3'): a small letter for the sugar, then the base; units joined by * are phosphorothioate-linked, units joined directly phosphodiester-linked; [ ] holds rarer units or linkages, { } end groups; capitals alone tell only the bases. e = 2'-O-(2-methoxyethyl) (MOE); [5mC] = 5-methylcytosine; d = 2'-deoxy (DNA)

How the values were obtained:
[1] = system: DGAT2 mRNA; assay: Antisense inhibition of DGAT2 in A10 cells, 75 nM (Table 81); format: cell-based, rat; conditions: approximately 24 hours
Description: Short antisense compounds targeted to a DGAT2 nucleic acid were tested for their effects on DGAT2 mRNA in vitro. Cultured A10 cells in a 96-well plate were treated with 75 nM of short antisense compound. After a treatment period of approximately 24 hours, RNA was isolated from the cells and DGAT2 mRNA levels were measured by quantitative real-time PCR, as described herein. DGAT2 mRNA levels were adjusted according to total RNA content as measured by RIBOGREEN®. Results are presented as percent inhibition of DGAT2, relative to untreated control cells in Table 81.

[2] = system: rat DGAT2 mRNA; assay: Dose-dependent inhibition of DGAT2 in A10 cells (Tables 82, 83); format: cell-based
Description: Additional short antisense compounds targeted to DGAT2 mRNA were tested in vitro in a dose-response experiment. A10 cells were prepared as described above and treated with 6.25, 12.5, 25.0, 50.0, 100.0, and 200.0 nM short antisense compounds to determine if DGAT2 inhibition occurs in a dose-dependent manner. […] Results are presented as percent inhibition, relative to untreated control cells.
Additional short antisense compounds targeted to DGAT2 mRNA were tested in vitro. A10 cells were prepared as described above and treated with 0.62, 1.85, 5.56, 16.67, 50.0, and 150.0 nM short antisense compounds to determine if DGAT2 inhibition occurs in a dose-dependent manner. DGAT2 mRNA was measured using quantitative real-time PCR, as described herein. […] Results are presented as percent inhibition of rat DGAT2, relative to untreated control cells.

[3] = system: mouse SGLT2 mRNA; assay: Mouse SGLT2 mRNA in kidney, additional 1-10-1 and 2-8-2 MOE gapmers (Table 68); format: in vivo; conditions: Balb/c mouse kidney
Description: 1-10-1 and 2-8-2 MOE gapmer short antisense compounds were designed to target different regions of the mouse SGLT2 RNA but have complementarity across species. […] All cytidine residues are 5-methylcytidines.
The short antisense compounds were analyzed for their effect on mouse SGLT2 mRNA levels in vivo. Data was taken from three experiments in which male 6-week old Balb/c mice were dosed twice per week for three weeks with 0.5, 0.1, or 0.02 umol/kg of either a 1-10-1 or 2-8-2 MOE gapmer given by intraperitoneal injection. Mice were sacrificed 48 hours following last administration and evaluated for SGLT2 levels in kidney. Target levels were determined by RT, real-time PCR as described by other examples herein. PCR results were normalized to an internal ISIS control.

Row | Substance | % Control [1] [% Control] | percent inhibition of rat DGAT2 ([2]; 0.62 nM (Table 83)) [%] | percent inhibition of rat DGAT2 ([2]; 1.85 nM (Table 83)) [%] | percent inhibition of rat DGAT2 ([2]; 5.56 nM (Table 83)) [%] | percent inhibition of rat DGAT2 ([2]; 16.67 nM (Table 83)) [%] | percent inhibition of rat DGAT2 ([2]; 50 nM (Table 83)) [%] | percent inhibition of rat DGAT2 ([2]; 150 nM (Table 83)) [%] | percent inhibition of DGAT2 ([2]; 6.25 nM (Table 82)) [%] | percent inhibition of DGAT2 ([2]; 12.5 nM (Table 82)) [%] | percent inhibition of DGAT2 ([2]; 50.0 nM (Table 82)) [%] | percent inhibition of DGAT2 ([2]; 100.0 nM (Table 82)) [%] | percent inhibition of DGAT2 ([2]; 200.0 nM (Table 82)) [%] | % change in SGLT2 expression relative to saline ([3]; 0.02 umol/kg i.p. twice per week for three weeks) [%] | % change in SGLT2 expression relative to saline ([3]; 0.1 umol/kg i.p. twice per week for three weeks) [%] | % change in SGLT2 expression relative to saline ([3]; 0.5 umol/kg i.p. twice per week for three weeks) [%]
1 | 372491 (antisense eA*e[5mC]*eA*dT*dG*dA*dG*dG*dA*dT*dG*dA*d[5mC]*eA*e[5mC]*eT) [compound 372491] | 80 |  |  |  |  |  |  |  |  |  |  |  |  |  | 
2 | 372500 (antisense eG*eT*eG*dT*dG*dT*d[5mC]*dT*dT*d[5mC]*dA*d[5mC]*d[5mC]*eA*eG*e[5mC]) [compound 372500] | 16 | 0 | 0 | 0 | 18 | 64 | 88 |  |  |  |  |  |  |  | 
3 | 372501 (antisense eT*eT*eG*dT*dG*dT*dG*dT*d[5mC]*dT*dT*d[5mC]*dA*e[5mC]*e[5mC]*eA) [compound 372501] | 28 | 1 | 5 | 10 | 11 | 25 | 68 |  |  |  |  |  |  |  | 
4 | 372503 (antisense eG*e[5mC]*eA*dG*dG*dT*dT*dG*dT*dG*dT*dG*dT*e[5mC]*eT*eT) [compound 372503] | 35 | 7 | 10 | 4 | 25 | 54 | 80 |  |  |  |  |  |  |  | 
5 | 372508 (antisense eA*eG*eT*dT*d[5mC]*d[5mC]*dT*dG*dG*dT*dG*dG*dT*e[5mC]*eA*eG) [compound 372508] | 35 | 0 | 0 | 6 | 14 | 39 | 71 |  |  |  |  |  |  |  | 
6 | 372516 (antisense eT*eA*e[5mC]*dA*dG*dA*dA*dG*dG*d[5mC]*dA*d[5mC]*d[5mC]*e[5mC]*eA*eG) [compound 372516] | 27 | 1 | 10 | 0 | 4 | 35 | 81 |  |  |  |  |  |  |  | 
7 | 372524 (antisense eG*e[5mC]*e[5mC]*dA*dG*dG*d[5mC]*dA*dT*dG*dG*dA*dG*e[5mC]*eT*e[5mC]) [compound 372524] | 21 | 7 | 0 | 5 | 30 | 68 | 91 |  |  |  |  |  |  |  | 
8 | 372530 (antisense eT*e[5mC]*eG*dG*d[5mC]*d[5mC]*d[5mC]*d[5mC]*dA*dG*dG*dA*dG*e[5mC]*e[5mC]*e[5mC]) [compound 372530] | 35 | 0 | 2 | 0 | 10 | 38 | 78 |  |  |  |  |  |  |  | 
9 | 372546 (antisense eT*eT*eG*dG*dT*d[5mC]*dT*dT*dG*dT*dG*dA*dT*eT*eG*eT) [compound 372546] | 34 | 0 | 2 | 11 | 4 | 48 | 78 |  |  |  |  |  |  |  | 
10 | 372563 (antisense eA*eG*d[5mC]*d[5mC]*dA*dG*dG*dT*dG*dA*d[5mC]*dA*eG*eA) [compound 372563] | 48 | 0 | 0 | 0 | 1 | 4 | 46 |  |  |  |  |  |  |  | 
11 | 372569 (antisense e[5mC]*eA*dT*dG*dA*dG*dG*dA*dT*dG*dA*d[5mC]*eA*e[5mC]) [compound 372569] | 104 |  |  |  |  |  |  |  |  |  |  |  |  |  | 
12 | 372578 (antisense eT*eG*dT*dG*dT*d[5mC]*dT*dT*d[5mC]*dA*d[5mC]*d[5mC]*eA*eG) [compound 372578] | 59 | 0 | 0 | 0 | 2 | 7 | 42 |  |  |  |  |  |  |  | 
13 | 372580 (antisense eG*eG*dT*dT*dG*dT*dG*dT*dG*dT*d[5mC]*dT*eT*e[5mC]) [compound 372580] | 48 | 0 | 5 | 5 | 3 | 16 | 42 |  |  |  |  |  |  |  | 
14 | 372586 (antisense eG*eT*dT*d[5mC]*d[5mC]*dT*dG*dG*dT*dG*dG*dT*e[5mC]*eA) [compound 372586] | 40 | 0 | 0 | 0 | 0 | 7 | 55 | 19 | 0 | 22 | 45 | 77 |  |  | 
15 | 372594 (antisense eA*e[5mC]*dA*dG*dA*dA*dG*dG*d[5mC]*dA*d[5mC]*d[5mC]*e[5mC]*eA) [compound 372594] | 77 | 0 | 0 | 0 | 0 | 2 | 15 |  |  |  |  |  |  |  | 
16 | 372602 (antisense e[5mC]*e[5mC]*dA*dG*dG*d[5mC]*dA*dT*dG*dG*dA*dG*e[5mC]*eT) [compound 372602] | 39 | 0 | 0 | 10 | 0 | 19 | 51 | 0 | 0 | 18 | 47 | 76 |  |  | 
17 | ISIS 388627 (eG*e[5mC]*dA*d[5mC]*dA*d[5mC]*dA*dG*d[5mC]*dT*eG*e[5mC]) |  |  |  |  |  |  |  |  |  |  |  |  | −38 | −50 | −65
